US20140296153A1, “Oligodendrocyte Differentiation” (priority 2011, published 2014)

Tests used:
SVZ cells [1] = assay: BrdU cell proliferation study in SVZ cell cultures; format: cell-based, mouse; conditions: 48 hours, BrdU last 4 hours
Protocol: SVZ cell cultures were obtained from early postnatal (P1-3) C57B1/6 donor mice as described previously.
Brains were removed following decapitation and placed in HBSS solution (Gibco, Carlsbad, Calif., USA). Fragments of SVZ were dissected out of 450 μm thick coronal brain sections, digested in 0.025% trypsin and 0.265 mM EDTA (Gibco), and dissociated by gentle mixing. The cell suspension was diluted in serum-free culture medium (SFM) composed of Dulbecco's modified eagle medium (D-MEM/F12 Gluta-MAX™-I, Gibco) supplemented with 100 U/mL penicillin, 100 μg/mL streptomycin (Gibco), 1% B27 (Gibco), 10 ng/mL epidermal growth factor (EGF; Gibco), and 5 ng/mL basic fibroblast growth factor (FGF-2, Gibco). Single cells were then plated on uncoated Petri dishes at a density of 3000 cells/cm^2. […]
Fluorescence images were recorded using an LSM 510 Meta confocal microscope or an Axioskop 2 Plus fluorescence microscope (both from Carl Zeiss). […] Percentages of TUNEL or BrdU immunoreactive cells in SVZ cell cultures were calculated from cell counts in five independent microscopic fields in each coverslip with a x40 objective (approximately 200 cells per field). […] For SCCl experiments, the percentage of oligodendrocytic-like responding cells (with a Thromb/Hist ratio above 1.3) was calculated on the basis of one microscopic field per coverslip, containing approximately 100 cells (magnification, ×40). […]

SVZ cells [2] = assay: TUNEL apoptosis assay in SVZ cell cultures; format: cell-based, mouse; conditions: for TUNEL-positive nuclei: 48 hours
Protocol: Six- to 8-day-old neurospheres were adhered for 48 hours onto poly-D-lysine-coated glass coverslips in SFM devoid of growth factors. Then, to evaluate proliferation/cell death and neuronal differentiation, the neurospheres were allowed to develop for 48 hours or 7 days at 37° C. in the absence or in the presence of hemopressin (100 nM or 1 μM, Proteimax, Cotia, Brazil) and the CB1R antagonist AM 251 (1 μM, Tocris, Ellisville, Mo., USA).
Cell apoptosis was evaluated by the terminal deoxynucleotidyl transferase dUTP nick-end labeling (TUNEL) assay which is a method that detects DNA fragmentation.
SVZ cells treated with Hp for 48 h, in serum free medium devoid of growth factor (differentiation conditions), were rinsed 3×10 min with 0.15 M PBS and permeabilized in 0.25% Triton X-100 for 30 min at RT. Cells were then incubated with terminal deoxynucleotidyl transferase buffer (0.25 U/μl terminal transferase), 6 μM biotinylated dUTP, pH 7.5)) (all from Roche, Basel, Switzerland) for 1 h at 37° C. in a humidified chamber, and then rinsed in TB buffer (300 mM NaCl and 30 mM sodium citrate) for 15 min and in PBS for 5 min. Incubation with Fluorescein was performed for 1 h and nuclei counterstaining and mounting were performed as described previously.
Fluorescence images were recorded using an LSM 510 Meta confocal microscope or an Axioskop 2 Plus fluorescence microscope (both from Carl Zeiss). In all experiments, measurements were performed in the border of SVZ neurospheres where migrating cells form a cell monolayer. […] Percentages of TUNEL or BrdU immunoreactive cells in SVZ cell cultures were calculated from cell counts in five independent microscopic fields in each coverslip with a x40 objective (approximately 200 cells per field). […] For SCCl experiments, the percentage of oligodendrocytic-like responding cells (with a Thromb/Hist ratio above 1.3) was calculated on the basis of one microscopic field per coverslip, containing approximately 100 cells (magnification, ×40).
The effect of Hp on cell death was evaluated after 48 hours of treatment with Hp.

CC(C)C[C@H](NC(=O)[C@H](Cc1ccccc1)NC(=O)[C@H](CCCCN)NC(=O)[C@H](Cc1ccccc1)NC(=O)[C@H](CC(N)=O)NC(=O)[C@@H](NC(=O)[C@@H]1CCCN1)C(C)C)C(=O)N[C@@H](CO)C(=O)N[C@@H](Cc1cnc[nH]1)C(=O)O [Hp, PVNFKFLSH] was tested, and the “percentage of BrdU-positive cells” value (SVZ cells [1]; 1 μM) was 4.70±0.53%, the “percentage of BrdU-positive cells” value (SVZ cells [1]; Hp 100 nM) was 4.01±0.81% and the “toxicity to the cells (TUNEL)” value (SVZ cells [2]; 48 hours of treatment) was “not toxic to the cells”. The TUNEL-positive nuclei (SVZ cells [2]; Hp 100 nM) was 10.26±1.69 and the TUNEL-positive nuclei (SVZ cells [2]; Hp 1 μM) was 13.25±1.56%.
